Literature values as cited in PMC8236845.
Read-outs that look alike come from different tables or passages of the source. Numbered stars: 1 amine (or outer) side, 2 acyl side, 3 side chain; on linkers, the order of the positions; unused ones are H or OH. Bridge positions count the residues as written; N and C are the ends. Square brackets hold non-standard residues; d marks the D form. Peptide text beside a SMILES is read from it. * marks the point of attachment. pTerphenylCO(4''-OnC5H11) = CCCCCOc1ccc(-c2ccc(-c3ccc(C(=O)*)cc3)cc2)cc1; Orn(4R-OH,5R-OH) = O=C([C@H](C[C@@H](O)[C@@H](O)N[*:3])N[*:1])[*:2]; hTyr(3S-OH,4S-OH) = N[C@H](C(=O)O)[C@H](O)[C@@H](O)c1ccc(O)cc1; Pro(3S-OH,4S-Me) = C[C@H]1CN[C@H](C(=O)O)[C@H]1O; Hyp = O=C(O)[C@@H]1C[C@@H](O)CN1

What was measured:
[1] = human, in vivo, cited from earlier work
SARS-CoV-2 = conditions: 2021, cited from earlier work
SARS-CoV-1 = conditions: cited from earlier work
[2] = system: Middle Eastern Respiratory Syndroms (MERS) coronaviruses; conditions: cited from earlier work
[3] = used in the context of chemotherapy, cited from earlier work
[4] = cited from earlier work
[5] = system: SARS-CoV-2-related Pangolin corona virus; conditions: cited from earlier work
[6] = DOGS topical 24 mg/kg, ref Sarasola et al. (2002)

CCCCCOc1ccc(-c2ccc(-c3ccc(C(=O)N[C@H]4C[C@@H](O)[C@@H](O)NC(=O)[C@@H]5[C@@H](O)[C@@H](C)CN5C(=O)[C@H]([C@@H](C)O)NC(=O)[C@H]([C@H](O)[C@@H](O)c5ccc(O)cc5)NC(=O)[C@@H]5C[C@@H](O)CN5C(=O)[C@H]([C@@H](C)O)NC4=O)cc3)cc2)cc1 [Anidulafungin] ({pTerphenylCO(4''-OnC5H11)}-[Orn(4R-OH,5R-OH)]T[Hyp][hTyr(3S-OH,4S-OH)]T[Pro(3S-OH,4S-Me)]; lactam 1-C)
C max (ng/ml) ([1]; iv): 2,500 ng/ml | Cmax ([1]; iv): 2200 nM

Cc1nc(Nc2ncc(C(=O)Nc3c(C)cccc3Cl)s2)cc(N2CCN(CCO)CC2)n1 [Dasatinib]
inhibition of SARS-CoV-2 in cell-culture-based studies (SARS-CoV-2; ref Cagno et al.): failed to inhibit | inhibition of SARS-CoV-1 (SARS-CoV-1): reported to inhibit | inhibition of MERS coronavirus [2]: reported to inhibit

CC(=O)O[C@@]12CO[C@@H]1C[C@H](O)[C@@]1(C)C(=O)[C@H](O)C3=C(C)[C@@H](OC(=O)[C@H](O)[C@@H](NC(=O)OC(C)(C)C)c4ccccc4)C[C@@](O)([C@@H](OC(=O)c4ccccc4)[C@H]21)C3(C)C [Docetaxel]
side effects ([3]; ref Gustafson et al., 2003): moderate to severe side effects | C max ([1]; iv): 933 ng/mL | Cmax ([1]; iv): 1230 nM

C[C@]12CC[C@@H]3c4ccc(OC(=O)c5ccccc5)cc4CC[C@H]3[C@@H]1CC[C@@H]2O [Estradiol benzoate]
inhibition of SARS-COV-2 replication in culture (SARS-CoV-2; ref Yang et al.): reported to inhibit | C max ([1]; im, 5 mg): 0.75 ng/mL | Cmax ([1]; im, 5 mg): 2 nM

Cc1ccc(NC(=O)c2ccc(CN3CCN(C)CC3)cc2)cc1Nc1nccc(-c2cccnc2)n1 [Imatinib]
inhibition of SARS-CoV-2 in cell-culture-based studies (SARS-CoV-2; ref Cagno et al.): failed to inhibit | inhibition of SARS-CoV-1 (SARS-CoV-1): reported to inhibit | inhibition of MERS coronavirus [2]: reported to inhibit

Cc1cn(-c2cc(NC(=O)c3ccc(C)c(Nc4nccc(-c5cccnc5)n4)c3)cc(C(F)(F)F)c2)cn1 [Nilotinib AMN-107, Nilotinib]
IC50 (SARS-CoV-2; ref Cagno et al., read-out: IC50 of inhibition of SARS-CoV-2 infection in vitro): 1500 to 3000 nM | C max (ng/ml) ([1]; po, 300 mg): 1,360 ng/ml | Cmax ([1]; po, 300 mg): 2570 nM

CC[C@H](C)[C@@H]1NC(=O)[C@H](Cc2ccc(O)cc2)NC(=O)[C@@H](N)CSSC[C@@H](C(=O)N2CCC[C@H]2C(=O)N[C@@H](CC(C)C)C(=O)NCC(N)=O)NC(=O)[C@H](CC(N)=O)NC(=O)[C@H](CCC(N)=O)NC1=O [Oxytocin]
C max ([1]; inhaled or intranasal, 44 ug): 0.005 ng/mL | Cmax ([1]; inhaled or intranasal, 44 ug): 5 nM | C max ([1]; iv): 0.005 ng/mL | Cmax ([1]; iv): 5 nM

COc1cc([C@@H]2c3cc4c(cc3[C@H](O)[C@H]3COC(=O)[C@@H]23)OCO4)cc(OC)c1OC [Picropodophyllin]
side effects ([3]; ref Ekman et al., 2016): moderate to severe side effects | C max (ng/ml) ([1]; po, 520 mg): 207–1,035 ng/ml | Cmax ([1]; po, 520 mg): 500 to 2500 nM

CO[C@H]1C[C@H](O[C@@H]2/C(C)=C/C[C@@H]3C[C@@H](C[C@]4(CC[C@H](C)[C@@H](C5CCCCC5)O4)O3)OC(=O)[C@@H]3C=C(C)/C(=N/O)[C@H]4OC/C(=C\C=C\[C@@H]2C)[C@]43O)O[C@@H](C)[C@@H]1O [Selamectin]
Cmax ([4]; DOGS oral 24 mg/kg, ref Sarasola et al. (2002)): 9900 nM | C max [4, 6]: 86.5 ng/mL | Cmax [4, 6]: 110 nM | tolerability ([4]; oral, dogs, ref Sarasola et al., 2002): well tolerated | inhibition of cytopathic effect [5]: inhibited the cytopathic effect
